The values that follow come from patent publication US20210139610A1, “COMPOSITIONS AND METHODS FOR MEDIATING EPS” (priority 2018, published 2021).

Experiment [1] concerns preformed NTHI biofilms. The experiment can be described thus: Disruption of pre-formed NTHI biofilms (treatment after initial growth; LIVE/DEAD, CLSM, COMSTAT). The class given is cell-based, Non-typeable Haemophilus influenzae. As to conditions: 24 h biofilm + 16 h with CeCl3 or chloroquine.
Experiment [2] has as its system Z-DNA and B-DNA in the NTHI biofilm extracellular matrix. As to the kind of experiment: Immunofluorescence CLSM for Z-DNA / B-DNA in NTHI biofilms. The experiment is classed as cell-based, Non-typeable Haemophilus influenzae. As to conditions: 24 h biofilm + 16 h with agent (1 mM CeCl3; 1 μM chloroquine). Here is the method: FIG. 31: DNase degrades B-DNA, but not Z-DNA, within the biofilm extracellular matrix. DNase (Pulmozyme; 5 units) was added at 24 h after biofilm seeding to in vitro pre-formed NTHI biofilms.
FIG. 37: HMGB1 destabilizes Z-DNA structures in the biofilm extracellular matrix. Non-typeable Haemophilus influenzae biofilms were grown in supplemented BHI media in 8 well chambered coverglass slides at 37° C. and 5% CO2. After 24 h, biofilms were treated as indicated above. After 40 h, biofilms were washed, probed with primary antibodies directed against Z-DNA (light gray dots), a fluorescent secondary antibody, stained with DAPI (gray regions), and visualized via fluorescence microscopy.
FIGS. 50A-50B: Equilibrium shift of B-DNA to Z-DNA conversion alters biofilm formation. NTHI biofilms formed for 24 h were incubated with cerium chloride (CeCl3) or chloroquine for an additional 16 h and were probed with naive or anti-Z-DNA (white) by immunofluorescence CLSM.
FIGS. 51A-51B: Equilibrium shift of B-DNA to Z-DNA conversion alters biofilm formation. NTHI biofilms formed for 24 h were incubated with cerium chloride (CeCl3) (FIG. 51A) or chloroquine (FIG. 51B) for an additional 16 h. Z-DNA was measured by IF and CLSM using anti-Z-DNA and cells were stained with the membrane stain FM4-64. Bars represent the SEM. Statistical significance compared to control was assessed by paired t-tests, *P<0.05, **P<0.01.

Another experiment has as its system genomic DNA / poly(dGdC). As to the kind of experiment: A260/295 absorbance ratio assay of B-DNA to Z-DNA conversion. The experiment is classed as biochemical. Here is the method:
In one aspect, the agents are administered in the absence of a DNAse. Left: Genomic DNA (2 μg/mL) was incubated with spermidine (spd:300 μM), HU (500 nM), a combination of both spd and HU for 2 h at 37° C. Incubation of gDNA with 3.6M NaCl was used as a positive Z-DNA control. Middle: gDNA (2 μg/mL) was incubated with increased concentrations of Cerium chloride (CeCl3) which is known to induce Z-DNA. Right: poly(dGdC) (1 μg) was incubated with either NaCl (3.6 M), chloroquine (100 μM), or a combination of both NaCl and chloroquine. […] The absorbance values at 260 nm and 295 nm were measured and the A260/295 ratio was calculated. A ratio >8.6 is indicative of B-DNA, while a value near 3.2 is indicative of Z-DNA.

Experiment [3] deals with preformed NTHI biofilms. As to the kind of experiment: Disruption of pre-formed NTHI biofilms (treatment after initial growth; LIVE/DEAD, CLSM, COMSTAT). The experiment is classed as cell-based, Non-typeable Haemophilus influenzae. As to conditions: 1% P11. Here is the method: (FIG. 18A) Biofilm growth was initiated then maintained for 24 hrs then treated for 16 hrs with 0 (SBHI Control), 0.1%, 1%, and 5% (w/v) of Phoshocellulose (P11). (FIG. 18B) Biofilm growth was initiated then maintained for 40 hrs in the presence of 0 (sBHI Control), 0.1%, 1%, and 5% (w/v) of (P11). Biofilms were washed with saline and stained with LIVE/DEAD® stain. Images were analyzed by COMSTAT to calculate average thickness and biomass. All images were captured with a 63× objective.
21:65-7. Pulmozyme® was added either at seeding (biofilm prevention) or to pre-formed biofilms (biofilm disruption) (FIG. 6). The resultant biofilms were stained with LIVE/DEAD® and evaluated using CLSM and COMSTAT analysis.
To determine anti-biofilm activity of cation exchange resins on preformed biofilms (i.e. ability to disrupt an extant biofilm), NTHI growth was initiated and maintained for 24 hrs, then treated for 16 hrs with 0 (sBHI Control), 0.1, 1, or 5% (w/v) of P11 phosphocellulose (FIG. 18A). To determine the anti-biofilm activity of cation exchange resins to prevent biofilm formation, NTHI growth was initiated and maintained in the presence of 0 (sBHI Control), 0.1, 1, and 5% w/v of P11 phosphocellulose (FIG. 18B) or 5% (w/v) heparin sepharose (FIG. 19). Biofilms were washed with saline and stained with LIVE/DEAD®, visualized with confocal scanning microscopy (CSLM) and analyzed by COMSTAT to determine average thickness and biomass.

Experiment [4] relates to Non-typeable Haemophilus influenzae biofilms. As to the kind of experiment: NTHI in vitro biofilm formation, additive present from seeding (LIVE/DEAD, CLSM, COMSTAT). The class given is cell-based. As to conditions: 1 mM exogenous spermidine plus DCHA 50 μM. Here is the method:
FIG. 14: Non-typeable Haemophilus influenzae biofilms were grown for 40 h in supplemented BHI medium containing additives as indicated below each bar in 8 well chambered coverglass slides at 37° C. and 5% CO2. Biofilms were washed, stained with LIVE/DEAD®, fixed, and imaged by CLSM. Biofilm parameters were quantified using COMSTAT software.
Dicyclohexylamine inhibits spermidine synthase via a competitive inhibition mechanism, i.e. through binding to the same site on the protein as the putrescine substrate. Applicants therefore hypothesized that dicyclohexylamine would inhibit NTHi biofilm development. […]

For the next experiment, the system named is NTHI biofilms. As to the kind of experiment: Transwell assay: NTHI biofilm in basolateral chamber, P11 resin in apical chamber. The class given is cell-based, Non-typeable Haemophilus influenzae.
Another experiment has as its system NTHI genomic DNA (gDNA). As to the kind of experiment: Protection of genomic DNA from DNase digestion (agarose gel). The class given is biochemical, Non-typeable Haemophilus influenzae. As to conditions: DNase 0.5 units.
The subject of experiment [5] is NTHI biofilms in the middle ear. The experiment can be described thus: Chinchilla model of otitis media due to NTHI, middle ear biofilm scoring. The experiment is classed as in vivo. The note with it: 5 μg to middle ears at 4 and 5 days post infection, scored 24 h later. The protocol: FIGS. 39A-39B: HMGB1 promotes biofilm resolution in an experimental model (chinchilla host) of OM. Diluent or 5 μg rHMGB1 or mHMGB1 were delivered directly to middle ears of chinchillas at 4 and 5 days post infection with NTHI. Animals were sacrificed 24 h later, and their middle ears were imaged (FIG. 39A) and blindly scored (FIG. 39B) based on the criteria described in the bottom of (FIG. 39A). Bars represent SEM. ***P<0.001.

The subject of a further experiment is genomic DNA. As to the kind of experiment: Spermidine sensitivity of nucleases on genomic DNA. The experiment is classed as biochemical. The note with it: Spermidine titrated from 10 μM-10 mM.

“Also recorded” adds a separate entry of the source.

Protocol for NTHI genomic DNA (gDNA): (FIG. 7C) Increasing levels of spermidine (Spd) and HU, separately or together, were incubated with genomic DNA (2 μg/ml) for 1.5 h at 37° C., followed by treatment with Pulmozyme® for 20 min. DNA degradation was assayed using agarose gel electrophoresis. […] (FIG. 7D) Spd (300 μM) and HU (1 μM) were incubated with genomic DNA (2 μg/ml) for 40 h, followed by Pulmozyme® treatment for 20 min.
To test synergism in vitro, Applicants incubated NTHI genomic DNA (gDNA) with spermidine (10, 20, 50, or 100 μM) in the presence or absence of HU (50 or 100 nM) and DNase (0.5 units). Degradation was assessed by agarose gel electrophoresis and UV illumination.

`[Cl][Ce]([Cl])[Cl]` [CeCl3, cerium chloride]: the “NTHI biofilm formation / development” value in the experiment with preformed NTHI biofilms [1] was “increased Z-DNA and biofilm formation”. In addition, in [2], the “Z-DNA abundance in NTHI biofilm” value was “increased Z-DNA abundance”. The “induction of Z-DNA in genomic DNA” value in the experiment with genomic DNA / poly(dGdC) (gDNA 2 μg/mL, spd 300 μM + HU 500 nM, 2 h at 37° C., or increased concentrations of CeCl3) is recorded as “synergized to induce Z-DNA”.

For the molecule `CCN(CC)CCCC(C)Nc1ccnc2cc(Cl)ccc12` (centres unmarked) [chloroquine], in the experiment on preformed NTHI biofilms [1], the “NTHI biofilm formation / development” value was “reduced Z-DNA and biofilm development”. In [2], the “Z-DNA abundance in NTHI biofilm” value is “decreased Z-DNA abundance; also recorded: reduced Z-DNA”. Further, in the experiment with genomic DNA / poly(dGdC) (chloroquine 100 μM with NaCl 3.6 M), the “B-DNA to Z-DNA transition of poly(dGdC)” value was “prevents the transition of B-DNA to Z-DNA”.

`[Cl-].[Cl-].[Mg+2]` [MgCl2]: the “compensation of phosphocellulose effect on NTHI biofilm” value in the experiment with preformed NTHI biofilms [3] (MgCl2 0-10 mM for 16 hrs) is “can partially compensate for the disruptive effect of phosphocellulose; also recorded: rescues the negative effect of phosphocellulose on NTHI biofilm stability”.

On to `NCCCCNCCCN` [spermidine], for which the “rescue of biofilm formation in dicyclohexylamine-treated NTHI biofilms” value in [4] is “defects in biofilm biogenesis could be compensated for; also recorded: restored normal biofilm thickness, biomass, and roughness; also recorded: able to rescue biofilm growth”; in experiment [4] (listed as Spd), “restored biofilm formation”. In the experiment on NTHI biofilms (1% P11, 1 mM spermidine or 1 μM HU, data not shown), the “restoration of P11-depleted biofilm by HU or spermidine individually” value was “insufficient”. The “restoration of cation-depleted biofilms by spermidine alone” value in the experiment on NTHI biofilms (1.5% P11, 100, 500 or 1000 μM spermidine, 16 hrs) is given as “alone can restore cation-depleted biofilms in a dose-dependent manner; also recorded: reduces the cation depletion effects of P11 phosphocellulose”. The “compensation of phosphocellulose effect on NTHI biofilm” value in the experiment on preformed NTHI biofilms [3] (spermidine 0-5 mM for 16 hrs) was “can partially compensate for the negative effect of phosphocellulose”; with preformed NTHI biofilms [3] (spermidine 0-5 mM for 16 hrs, listed as Spermidine) it was “rescues the negative effect of phosphocellulose on NTHI biofilm stability”. Also, the “concentration protecting gDNA from DNase individually” value in the experiment on NTHI genomic DNA (gDNA) is over 100 µM. Further, the “concentration inhibiting gDNA digestion synergistically when admixed” value with NTHI genomic DNA (gDNA) (admixed with HU) was under 50 µM.

B1: non-inflammatory HMGB1 variant: mHMGB1, a C45 S non-inflammatory variant (protein, UniProt P09429 1-215, looked up, variant C45S)
High mobility group protein B1: MGKGDPKKPRGKMSSYAFFVQTCREEHKKKHPDASVNFSEFSKKSSERWKTMSAKEKGKFEDMAKADKARYEREMKTYIPPKGETKKKFKDPNAPKRPPSAFFLFCSEYRPKIKGEHPGLSIGDVAKKLGEMWNNTAADDKQPYEKKAAKLKEKYEKDIAAYRAKGKPDAAKKGVVKAEKSKKKKEEEEDEEDEEDEEEEEDEEDEDEEEDDDDE
As for B1, the “resolution of middle ear NTHI biofilms” value in experiment [5] is on record as “efficient resolution of adherent biofilms”.

B2: NucB: nuclease that prevents biofilm formation (Table 1) (protein, UniProt P42983 29-136, looked up)
Sporulation-specific …: SYDKVLYFPLSRYPETGSHIRDAIAEGHPDICTIDRDGADKRREESLKGIPTKPGYDRDEWPMAVCEEGGAGADVRYVTPSDNRGAGSWVGNQMSSYPDGTRVLFIVQ
B2: the “Spd inhibition: spermidine concentration where nuclease was reduced to <10% activity on genomic DNA” value in the experiment with genomic DNA is reported as over 10 mM.
